In data set [1] the test system is organic anion transporting polypeptide 1B1 (OATP1B1). More on the design: method as in PMID 27936281, PMID 19785645, PMID 29538325. The settings on record: cited from earlier work.
For data set [2] the following is noted: cited from earlier work.
The conditions of data set [3]: carboxylic acid functional group; no reference given; cited from earlier work.
The nature of data set [4]: Pharmacokinetic study of FLV in rabbits after oral FLV alone and with EMP. The class given is in vivo, New Zealand white rabbits. To be noted: mean ± SD; for AUC(0-t) / k el / half-life / AUC(0-inf) / Cmax / MRT: rabbit, plasma, po, 2 mg/kg; for AUC(0-t): read-out: AUC0-24; for k el: read-out: Ke (elimination rate constant) (converted); for half-life: read-out: t0.5 (elimination half-life) (converted). As to the method: Ethical approval (under the No. 06/2023/0111) for this research was granted by the ethics committee at Assiut University, Egypt, and the study was conducted in adherence to the principles outlined in the Declaration of Helsinki. The study involved six New Zealand white rabbits, each weighing 2.0 ± 0.2 kg, obtained from a licensed animal supplier in Assiut, Egypt. Before commencing the study, the rabbits' health was evaluated, ensuring they were in good condition. The rabbits were individually housed in cages measuring 0.8 × 0.6 × 0.5 m and given a 15 day acclimatization period to adjust to the experimental conditions and handling. During this time, no medications or vaccines were administered to the rabbits. The room temperature was kept constant at 25 ± 2 °C, and the relative humidity was maintained at 50 ± 5%. Throughout the acclimatization period, the rabbits were provided with a commercial pellet diet and water. Before the experiment began, the rabbits fasted for approximately 12 hours while being allowed access to water.
The rabbits administered FLV via oral route at a dose of 2.0 mg kg^−1. After a washout period of 14 days to allow any FLV to clear from the rabbits' bodies, the same rabbits administered both (2 mg kg^−1 for FLV and 1.5 mg kg^−1 for EMP). Blood samples (1.0 mL) were collected after administration of the studied analytes after 0.25, 0.5, 1, 1.5, 3, 5, 7, 10, 12, 18 and 24 h of their administration. The samples were drawn from marginal ear vein, placed into tubes that had been heparinized, and centrifuged for 15 minutes at 6000 rpm. The plasma was then collected and stored at −20 °C in dark containers until analysis. The pharmacokinetic parameters of FLV were calculated using one compartment model for the treated group using Phoenix®WinNonlin software version 5.1 (Pharsight, Mountain View, CA, USA). These parameters included total area under the curve (AUC) from 0 to 24 hours (AUC0→24), cumulative plasma concentration from 0 to infinity (AUC0→∞), peak plasma concentration (Cmax), elimination rate constant (Ke), mean residence time (MRT), absorption half-life (t1/2a), and elimination half-life (t1/2). The data are reported as mean ± standard deviation (mean ± SD). To analyze differences in parameters between the groups, t-test was employed, using GraphPad Prism 9.0.

The mark [5] stands for this setting: New Zealand white, FLV (2 mg kg−1) co-administered with EMP (1.5 mg kg−1), oral, rabbit plasma.
Setting [6] is: New Zealand white, FLV (2 mg kg−1) co-administered with EMP (1.5 mg kg−1), rabbit plasma.
Setting [7] is: New Zealand white, FLV alone, oral 2.0 mg kg−1, rabbit plasma.

Read-outs that look alike come from different tables or passages of the source.

The term log P denotes a log measure of how a compound divides between an organic and an aqueous phase. For the molecule `OC[C@H]1O[C@@H](c2ccc(Cl)c(Cc3ccc(O[C@H]4CCOC4)cc3)c2)[C@H](O)[C@@H](O)[C@@H]1O` [EMP, Empagliflozin], in data set [1], the “Effect on OATP1B1 transporter” value was “inhibit”. For the same molecule, the “log P” value in data set [2] is on record as 1.7.
As usually defined, the half-life is how long it takes for the measured level to halve. The AUC(0-inf) is total exposure, with the tail of the curve extrapolated. By Cmax is commonly meant the highest concentration seen after dosing. Usually MRT stands for the average time that molecules of a dose stay in the body. As a reminder, the Tmax is the time at which the peak concentration occurs. `CC(C)n1c(/C=C/C(O)CC(O)CC(=O)O)c(-c2ccc(F)cc2)c2ccccc21` (stereo not shown) [FLV, Fluvastatin]: the pKa result in data set [3] is recorded as “around 4.8”. Further, the Ka in data set [4] (FLV (2 mg kg−1) co-administered with EMP (1.5 mg kg−1), oral, rabbit plasma) worked out at 2.52 ± 0.42 h⁻¹. In data set [4] (FLV alone, oral 2.0 mg kg−1, rabbit plasma), this molecule had a Ka of 2.24 ± 0.42 h⁻¹. In addition, in data set [4] (setting [5]), the AUC(0-t) came to 2580 ± 245 ng·h/mL, the k el is 2.5e-05 s⁻¹, the half-life was 7.73 h and the time to peak (Tmax) was determined as 1.5 h. In addition, in data set [4] (setting [6]), the AUC(0-inf) came to 2900 ± 189 ng·h/mL, the Cmax was 352 ng/mL and the MRT is 7.66 ± 0.77 h. In data set [4] (setting [7]), the AUC(0-inf) is 1370 ± 144 ng·h/mL, the concentration peaked (Cmax) at 250 ng/mL, the MRT was found to be 6.99 ± 0.89 h and the AUC(0-t) worked out at 1340 ± 452 ng·h/mL. In addition, in data set [4] (setting [7]), the k el was 4.44e-05 s⁻¹ and the half-life is 4.27 h. Besides, the “log P” value in data set [2] was 4.5.

Values taken from article PMC10595561, “A novel microextraction technique aided by air agitation using a natural hydrophobic deep eutectic solvent for the extraction of fluvastatin and empagliflozin from plasma samples: application to pharmacokinetic and drug–drug interaction study” (RSC Advances, 2023).
